Measured values from US20250032651A1, “[177LU] LUTETIUM-PSMA I&T COMPOSITION AND DOSIMETRY, KIT, METHOD OF MAKING, AND METHOD OF USING THEREOF” (Curium US LLC, priority 2022, published 2025).

Assay: Normal organ dosimetry Cycle 1: SPECT/CT, TIACs, OLINDA 2.2.3 absorbed radiation dose
Assay type: in vivo, human
Settings: for Absorbed Dose, min / Absorbed Dose, Mean / Absorbed Dose, max / Absorbed Dose, median: Cycle 1
Experimental: This Example presents the biodistribution, dosimetry, and pharmacokinetics (PK) results of a PK/Dosimetry sub-study performed as part of a Phase III trial. Twenty-seven (27) patients were administered a target activity of 7.4±10% GBq of ^177Lu-PSMA-I&T and underwent single photon emission computed tomography (SPECT)/computed tomography (CT) imaging at four timepoints (4 h, 24 h, 48 h, and 168 h). Image data was analysed to compute time-activity curves (TACs) and subsequently time-integrated activity coefficients (TIACs) in each organ of interest and in organs showing appreciable and meaningful ^177Lu-PSMA-I&T activity. Organ Level Internal Dose Assessment (OLINDA 2.2.3) was used to compute organ and whole body absorbed radiation doses for each patient.
All participating sites underwent a rigorous site setup process during which all dose calibrators, scanners, and gamma counters used in the sub-study were calibrated. Sites were allowed to enroll patients in the sub-study only after the completion and approval of all site setup processes by Invicro. Patients underwent SPECT/CT imaging, with anatomical coverage typically extending from the salivary glands to the pelvis, following the administration of a targeted 7.4±10% GBq of ^177Lu-PSMA-I&T at cycle 1. SPECT/CT imaging was performed at four timepoints: 4 h, 24 h, 48 h, and 168 h post-injection. Additionally, a subset of patients imaged at Cycle 1 (16 out of 27), were also imaged at Cycle 3 (Table 2).
The imaging data was analyzed using Invicro's VivoQuant software, a validated software used in a 21 CFR § 11-compliant workflow. The general quantification approach was based on the principles detailed in the Medical Internal Radiation Dose (MIRD) Pamphlet No. 16, No 23, and No 26 as appropriate.
Volume of interest (VOI) (kidneys, bladder, liver, lumbar vertebrae L2-L4, lacrimal glands, salivary glands [parotid and submandibular glands], and whole body) were delineated on each dataset by a trained image analyst. […] Organs were segmented either by drawing the entire contour of the organ, or by placing a sphere in a representative region of the organ and then multiplying by the organ's effective mass (based on patient's height and weight). Segmentation methods for each organ are specified in Table 3 and were consistently applied to each patient.
Clearance of the radiopharmaceutical was derived from a data-appropriate fit of each organ's TAC. Depending on the TAC's shape, the data was fitted with the sum of one, two, or three exponentials, or using a rise and fall model. Fitting was performed with in-house Python software. TIACs were calculated through analytical integration of the curve fit extrapolated to infinity. […] A whole-body TAC was derived from delineating the imaged body. The remainder activity was determined by subtracting the cumulative organ TIACs from the whole body TIAC.
Organ TIACs were input into OLINDA 2.2.3 for the computation of organ and whole-body absorbed doses, using International Commission on Radiological Protection (ICRP)-103 weighing factors. The ICRP-89 derived male phantom was used for dose estimation. Organs and body mass as defined by ICRP-89 were scaled based on height and mass using patient effective mass.^4 The voiding bladder model as implemented in OLINDA was used to determine bladder TIAC, assuming a voiding interval of 4 hours. The human alimentary tract model (HAT model) described in ICRP 100 and implemented in OLINDA was used to compute doses to the small intestine, right colon, left colon and rectum for patients showing clearance through the GI tract. The fraction of injected activity (fIA) cleared via the GI tract was determined by taking the peak fIA in the GI tract over all the imaging timepoints. […] The Red Marrow mass in L2-L4 was assumed to be 6.7% of the total red marrow mass.

[1] = Prostate, 16 patients imaged at cycle 1 and 3
[2] = Rectum, 16 patients imaged at cycle 1 and 3
[3] = Red Marrow, 16 patients imaged at cycle 1 and 3
[4] = Right Colon, 16 patients imaged at cycle 1 and 3
[5] = Salivary Glands, 16 patients imaged at cycle 1 and 3
[6] = Salivary Glands, n = 26, patient 12-004 excluded
[7] = Small intestine, 16 patients imaged at cycle 1 and 3
[8] = Spleen, 16 patients imaged at cycle 1 and 3
[9] = Stomach Wall, 16 patients imaged at cycle 1 and 3
[10] = Testes, 16 patients imaged at cycle 1 and 3
[11] = Thymus, 16 patients imaged at cycle 1 and 3
[12] = Thyroid, 16 patients imaged at cycle 1 and 3
[13] = Total Body, 16 patients imaged at cycle 1 and 3
[14] = Urinary Bladder wall, 16 patients imaged at cycle 1 and 3

O=C([O-])CC[C@H](NC(=O)N[C@@H](CCCCNC(=O)CCCCCCC(=O)NCCCC[C@@H](NC(=O)[C@@H](Cc1ccccc1)NC(=O)[C@@H](Cc1ccc(O)c(I)c1)NC(=O)CC[C@H](C(=O)[O-])N1CCN(CC(=O)[O-])CCN(CC(=O)[O-])CCN(CC(=O)[O-])CC1)C(=O)[O-])C(=O)[O-])C(=O)[O-].[177Lu+3].[H+].[H+].[H+].[H+].[H+] [^177Lu-PSMA I&T, (3S,7S,26R,29R,32R,37R)-29-benzyl-32-(4-hydroxy-3-iodobenzyl)-5,13,20,28,31,34-hexaoxo-37-(4,7,10-tris(carboxymethyl)-1,4,7,10-tetraazacyclododecan-1-yl)-4,6,12,21,27,30,33-heptaazaheptatriacontane-1,3,7,26,37-pentacarboxylic acid; lutetium-177 (III)]
0.05 Gy/GBq: Absorbed Dose in Cycle 1, Mean [3] | Absorbed Dose in Cycle 1, Mean (Red Marrow, N = 16) | Absorbed Dose, Mean (Small intestine, n = 26)
0.17 Gy/GBq: Absorbed Dose in Cycle 1, Mean [5] | Absorbed Dose in Cycle 1, Mean (Salivary Glands, N = 16)
0.39 Gy/GBq: Absorbed Dose, median (Rectum, n = 26)
0.82 Gy/GBq: Absorbed Dose in Cycle 1, max [4] | Absorbed Dose, max (Right Colon, n = 26) | Absorbed Dose in Cycle 1, max (Right Colon, N = 16)
0.07 Gy/GBq: Absorbed Dose in Cycle 1, max (Pancreas, N = 16) | Absorbed Dose in Cycle 1, max [1] | Absorbed Dose, max (Prostate, n = 26) | Absorbed Dose in Cycle 1, max (Prostate, N = 16) | Absorbed Dose in Cycle 1, max [9] | Absorbed Dose, max (Stomach Wall, n = 26) | Absorbed Dose in Cycle 1, max (Stomach Wall, N = 16) | Absorbed Dose in Cycle 1, max [10] | Absorbed Dose, max (Testes, n = 26) | Absorbed Dose in Cycle 1, max (Testes, N = 16) | Absorbed Dose in Cycle 1, max [11] | Absorbed Dose, max (Thymus, n = 26) | Absorbed Dose in Cycle 1, max (Thymus, N = 16) | Absorbed Dose in Cycle 1, max [12] | Absorbed Dose, max (Thyroid, n = 26) | Absorbed Dose in Cycle 1, max (Thyroid, N = 16)
0.09 Gy/GBq: Absorbed Dose in Cycle 1, max [13] | Absorbed Dose, max (Total Body, n = 26) | Absorbed Dose in Cycle 1, max (Total Body, N = 16)
0.04 Gy/GBq: Absorbed Dose, median (Small intestine, n = 26)
0.47 Gy/GBq: Absorbed Dose in Cycle 1, max [14] | Absorbed Dose in Cycle 1, max (Urinary Bladder wall, N = 16)
0.28 Gy/GBq: Absorbed Dose in Cycle 1, max [3] | Absorbed Dose in Cycle 1, max (Red Marrow, N = 16) | Absorbed Dose in Cycle 1, Mean [4] | Absorbed Dose in Cycle 1, Mean (Right Colon, N = 16)
0.40 Gy/GBq: Absorbed Dose in Cycle 1, Mean [14]
0.15 Gy/GBq: Absorbed Dose, median [6] | Absorbed Dose in Cycle 1, max [7] | Absorbed Dose, max (Small intestine, n = 26) | Absorbed Dose in Cycle 1, max (Small intestine, N = 16)
0.49 Gy/GBq: Absorbed Dose, max (Red Marrow, n = 26)
0.19 Gy/GBq: Absorbed Dose, Mean [6]
0.11 Gy/GBq: Absorbed Dose in Cycle 1, max [8] | Absorbed Dose, max (Spleen, n = 26) | Absorbed Dose in Cycle 1, max (Spleen, N = 16)
0.03 Gy/GBq: Absorbed Dose, median (Red Marrow, n = 26) | Absorbed Dose in Cycle 1, min [5] | Absorbed Dose, min [6] | Absorbed Dose in Cycle 1, min (Salivary Glands, N = 16) | Absorbed Dose in Cycle 1, Mean [8] | Absorbed Dose, Mean (Spleen, n = 26) | Absorbed Dose in Cycle 1, Mean (Spleen, N = 16)
10.40 Gy/GBq: Absorbed Dose in Cycle 1, Mean (Urinary Bladder wall, N = 16)
0.01 Gy/GBq: Absorbed Dose in Cycle 1, min [1] | Absorbed Dose, median (Prostate, n = 26) | Absorbed Dose, min (Prostate, n = 26) | Absorbed Dose in Cycle 1, min (Prostate, N = 16) | Absorbed Dose in Cycle 1, min [2] | Absorbed Dose, min (Rectum, n = 26) | Absorbed Dose in Cycle 1, min (Rectum, N = 16) | Absorbed Dose in Cycle 1, min [4] | Absorbed Dose, min (Right Colon, n = 26) | Absorbed Dose in Cycle 1, min (Right Colon, N = 16) | Absorbed Dose in Cycle 1, min [7] | Absorbed Dose, min (Small intestine, n = 26) | Absorbed Dose in Cycle 1, min (Small intestine, N = 16) | Absorbed Dose in Cycle 1, min [8] | Absorbed Dose, min (Spleen, n = 26) | Absorbed Dose in Cycle 1, min (Spleen, N = 16) | Absorbed Dose, median (Stomach Wall, n = 26) | Absorbed Dose in Cycle 1, Mean [10] | Absorbed Dose, Mean (Testes, n = 26) | Absorbed Dose, median (Testes, n = 26) | Absorbed Dose in Cycle 1, Mean (Testes, N = 16) | Absorbed Dose in Cycle 1, Mean [11] | Absorbed Dose, Mean (Thymus, n = 26) | Absorbed Dose, median (Thymus, n = 26) | Absorbed Dose in Cycle 1, Mean (Thymus, N = 16) | Absorbed Dose in Cycle 1, Mean [12] | Absorbed Dose, Mean (Thyroid, n = 26) | Absorbed Dose, median (Thyroid, n = 26) | Absorbed Dose in Cycle 1, Mean (Thyroid, N = 16) | Absorbed Dose in Cycle 1, min [13] | Absorbed Dose, min (Total Body, n = 26) | Absorbed Dose in Cycle 1, min (Total Body, N = 16)
0.00 Gy/GBq: Absorbed Dose, min (Pancreas, n = 26) | Absorbed Dose in Cycle 1, min (Pancreas, N = 16) | Absorbed Dose in Cycle 1, min [3] | Absorbed Dose, min (Red Marrow, n = 26) | Absorbed Dose in Cycle 1, min (Red Marrow, N = 16) | Absorbed Dose in Cycle 1, min [9] | Absorbed Dose, min (Stomach Wall, n = 26) | Absorbed Dose in Cycle 1, min (Stomach Wall, N = 16) | Absorbed Dose in Cycle 1, min [10] | Absorbed Dose, min (Testes, n = 26) | Absorbed Dose in Cycle 1, min (Testes, N = 16) | Absorbed Dose in Cycle 1, min [11] | Absorbed Dose, min (Thymus, n = 26) | Absorbed Dose in Cycle 1, min (Thymus, N = 16) | Absorbed Dose in Cycle 1, min [12] | Absorbed Dose, min (Thyroid, n = 26) | Absorbed Dose in Cycle 1, min (Thyroid, N = 16)
0.33 Gy/GBq: Absorbed Dose in Cycle 1, min [14] | Absorbed Dose, min (Urinary Bladder wall, n = 26) | Absorbed Dose in Cycle 1, min (Urinary Bladder wall, N = 16)
0.44 Gy/GBq: Absorbed Dose, Mean (Rectum, n = 26)
0.22 Gy/GBq: Absorbed Dose, median (Right Colon, n = 26)
0.08 Gy/GBq: Absorbed Dose, Mean (Red Marrow, n = 26)
0.80 Gy/GBq: Absorbed Dose in Cycle 1, max [5] | Absorbed Dose, max [6] | Absorbed Dose in Cycle 1, max (Salivary Glands, N = 16)
0.06 Gy/GBq: Absorbed Dose in Cycle 1, Mean [7] | Absorbed Dose in Cycle 1, Mean (Small intestine, N = 16)
0.41 Gy/GBq: Absorbed Dose, Mean (Urinary Bladder wall, n = 26) | Absorbed Dose, median (Urinary Bladder wall, n = 26)
0.25 Gy/GBq: Absorbed Dose, Mean (Right Colon, n = 26)
0.50 Gy/GBq: Absorbed Dose in Cycle 1, Mean [2] | Absorbed Dose in Cycle 1, Mean (Rectum, N = 16) | Absorbed Dose, max (Urinary Bladder wall, n = 26)
0.02 Gy/GBq: Absorbed Dose in Cycle 1, Mean (Pancreas, N = 16) | Absorbed Dose in Cycle 1, Mean [1] | Absorbed Dose, Mean (Prostate, n = 26) | Absorbed Dose in Cycle 1, Mean (Prostate, N = 16) | Absorbed Dose, median (Spleen, n = 26) | Absorbed Dose in Cycle 1, Mean [9] | Absorbed Dose, Mean (Stomach Wall, n = 26) | Absorbed Dose in Cycle 1, Mean (Stomach Wall, N = 16) | Absorbed Dose in Cycle 1, Mean [13] | Absorbed Dose, Mean (Total Body, n = 26) | Absorbed Dose, median (Total Body, n = 26) | Absorbed Dose in Cycle 1, Mean (Total Body, N = 16)
1.46 Gy/GBq: Absorbed Dose in Cycle 1, max [2] | Absorbed Dose, max (Rectum, n = 26) | Absorbed Dose in Cycle 1, max (Rectum, N = 16)
